Measurements reported in patent publication US11780840B2 (Incyte Corporation, priority 2020, dated 2023).

Assays:
[1] = target: T1, pseudo-kinase domain (JH2, amino-acids 536-812 with 3 surface mutations W659A, W777A, F794H) of human V617F mutant JAK2 (Homo sapiens, UniProt O60674, F794H/V617F/W659A/W777A); experiment: JAK2 LanthaScreen JH2-V617F Binding Assay; conditions: JAK2 JH2-V617F (0.26 nM), 50 nM Fluorescent JAK2-JH2 Tracer, 1 hour at 25° C.; read-out: JH2 BIND V617F
T1 construct: pseudo-kinase domain (JH2, amino-acids 536-812 with 3 surface mutations W659A, W777A, F794H); His (C); Avi (biotinylated) (C); purchased BPS Bioscience 79498; host or cells: baculovirus expression system
T1 sequence (O60674 536-812 V617F/W659A/W777A/F794H): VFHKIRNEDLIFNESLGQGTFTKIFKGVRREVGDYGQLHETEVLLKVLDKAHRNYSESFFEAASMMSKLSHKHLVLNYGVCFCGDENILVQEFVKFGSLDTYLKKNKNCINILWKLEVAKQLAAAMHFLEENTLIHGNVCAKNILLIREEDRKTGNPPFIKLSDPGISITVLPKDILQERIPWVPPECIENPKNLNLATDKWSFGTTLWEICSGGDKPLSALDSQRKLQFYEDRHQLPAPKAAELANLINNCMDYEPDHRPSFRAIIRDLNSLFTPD
Method: Example C. JAK2 LanthaScreen JH2-V617F Binding Assay
(§1) JAK2 JH2-V617F binding assay utilizes pseudo-kinase domain (JH2, amino-acids 536-812 with 3 surface mutations W659A, W777A, F794H) of human V617F mutant JAK2 expressed as C-terminal His-Avi-tagged, biotinylated protein in a baculovirus expression system (BPS Bioscience, Catalog #79498). The assay was conducted in black 384-well polystyrene plates in a final reaction volume of 20 μL. JAK2 JH2-V617F (0.26 nM) was incubated with compounds (100 nL serially diluted in DMSO) in the presence of 50 nM Fluorescent JAK2-JH2 Tracer (MedChem Express Catalog #HY-102055) and 0.25 nM Streptavidin-Tb cryptate (Cisbio Part #610SATLB) in assay buffer (50 mM Tris, pH=7.5, 10 mM MgCl2, 0.01% Brij-35, 0.1% BSA, 1 mM EGTA, 5% Glycerol and 5 mM DTT). Non-specific binding was accessed in the presence of 2 mM ATP. After incubation for 1 hour at 25° C., LanthaScreen signals were read on a PHERAstar FS plate reader (BMG LABTECH). Data was analyzed with IDBS XLfit and GraphPad Prism 5.0 software using a four parameter dose response curve to determine IC50 for each compound.

[2] = target: T2, pseudo-kinase domain (JH2, amino-acids 536-812 with 3 surface mutations W659A, W777A, F794H) of human Wild Type JAK2 (Homo sapiens, UniProt O60674, F794H/W659A/W777A); experiment: JAK2 LanthaScreen JH2-WT Binding Assay; conditions: JAK2 JH2-WT (0.145 nM), 50 nM Fluorescent JAK2-JH2 Tracer, 1 hour at 25° C.; read-out: JH2 BIND WT
T2 construct: pseudo-kinase domain (JH2, amino-acids 536-812 with 3 surface mutations W659A, W777A, F794H); His (C); Avi (biotinylated) (C); purchased BPS Bioscience 79463; host or cells: baculovirus expression system
T2 sequence (O60674 536-812 W659A/W777A/F794H): as the sequence (O60674 536-812 V617F/W659A/W777A/F794H) above, with F82V counted along it
Method: Example B. JAK2 LanthaScreen JH2-WT Binding Assay
as §1, with “JH2-WT” for “JH2-V617F”, “Wild Type” for “V617F mutant”, “#79463).” for “#79498).”, “JH2-WT (0.145” for “JH2-V617F (0.26”

[3] = target: T3, catalytic domain (JH1, amino acids 826-1132) of human JAK2 (Homo sapiens, UniProt O60674); experiment: JAK2 LanthaScreen JH1 Binding Assay; conditions: JAK2 JH1 (1.5 nM), 50 nM fluorescent JAK2-JH1 tracer, 2 hours at 25° C.; read-out: JH1 BIND
T3 construct: catalytic domain (JH1, amino acids 826-1132) of human JAK2; FLAG (N); purchased Carna Biosciences 08-445-20N; host or cells: baculovirus expression system
T3 sequence (O60674 826-1132): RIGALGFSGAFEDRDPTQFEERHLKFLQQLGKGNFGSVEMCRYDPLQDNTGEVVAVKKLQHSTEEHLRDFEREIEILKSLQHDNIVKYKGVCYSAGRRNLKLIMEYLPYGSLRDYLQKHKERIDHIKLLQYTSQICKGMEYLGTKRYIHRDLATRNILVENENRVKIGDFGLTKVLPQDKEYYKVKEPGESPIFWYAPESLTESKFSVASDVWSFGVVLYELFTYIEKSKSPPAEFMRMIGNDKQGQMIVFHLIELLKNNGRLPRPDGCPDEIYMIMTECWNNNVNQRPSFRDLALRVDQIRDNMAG
Method: Example A. JAK2 LanthaScreen JH1 Binding Assay
JAK2 JH1 binding assay utilizes catalytic domain (JH1, amino acids 826-1132) of human JAK2 expressed as N-terminal FLAG-tagged, biotinylated protein in a baculovirus expression system (Carna Biosciences, Product #08-445-20N). The assay was conducted in black 384-well polystyrene plates in a final reaction volume of 20 μL. JAK2 JH1 (1.5 nM) was incubated with compounds (100 nL serially diluted in DMSO) in the presence of 50 nM fluorescent JAK2-JH1 tracer and 0.5 nM Streptavidin-Tb cryptate (Cisbio Part #610SATLB) in assay buffer (50 mM Tris, pH=7.5, 10 mM MgCl2, 0.01% Brij-35, 0.1% BSA, 1 mM EGTA, 5% Glycerol and 5 mM DTT). Non-specific binding was accessed in the presence of 2 mM ATP. After incubation for 2 hours at 25° C., LanthaScreen signals were read on a PHERAstar FS plate reader (BMG LABTECH). Data was analyzed with IDBS XLfit and GraphPad Prism 5.0 software using a four parameter dose response curve to determine IC50 for each compound.

Row | Structure (SMILES) | IC50 [1] | IC50 [2] | IC50 [3]
1 | Cn1c(=O)n(-c2ccccc2)c2c3cc(-c4ccc(CN5CCC(S(C)(=O)=O)CC5)cc4)[nH]c3ncc21 [Example 1, 3-Methyl-7-(4-((4-(methylsulfonyl)piperidin-1-yl)methyl)phenyl)-1-phenyl-3,6-dihydroimidazo[4,5-d]pyrrolo[2,3-b]pyridin-2(1H)-one] | 100 to 500 nM | 10 to 100 nM | 10 to 100 nM
2 | COc1ccc(-n2c(=O)n(C)c3cnc4[nH]c(-c5ccc(CN6CCC(S(C)(=O)=O)CC6)cc5)cc4c32)cc1 [Example 2, 1-(4-Methoxyphenyl)-3-methyl-7-(4-((4-(methylsulfonyl)piperidin-1-yl)methyl)phenyl)-3,6-dihydroimidazo[4,5-d]pyrrolo[2,3-b] pyridin-2(1H)-one] | 100 to 500 nM | 10 to 100 nM | 10 to 100 nM
3 | Cn1c(=O)n(-c2ccc3occc3c2)c2c3cc(-c4ccc(CN5CCC(S(C)(=O)=O)CC5)cc4)[nH]c3ncc21 [Example 3, 1-(Benzofuran-5-yl)-3-methyl-7-(4-((4-(methylsulfonyl)piperidin-1-yl)methyl)phenyl)-3,6-dihydroimidazo[4,5-d]pyrrolo[2,3-b]pyridin-2(1H)-one] | 10 to 100 nM | 10 to 100 nM | 10 to 100 nM
4 | CS(=O)(=O)C1CCN(Cc2ccc(-c3cc4c(ncc5[nH]c(=O)n(-c6ccccc6)c54)[nH]3)cc2)CC1 [Example 4, 7-(4-((4-(Methylsulfonyl)piperidin-1-yl)methyl)phenyl)-1-phenyl-3,6-dihydroimidazo [4,5-d]pyrrolo[2,3-b]pyridin-2(1H)-one] | 100 to 500 nM | 100 to 500 nM | 10 to 100 nM
5 | CS(=O)(=O)C1CCN(Cc2ccc(-c3cc4c(ncc5c4n(-c4ccccc4)c(=O)n5CCO)[nH]3)cc2)CC1 [Example 5, 3-(2-Hydroxyethyl)-7-(4-((4-(methylsulfonyl)piperidin-1-yl)methyl)phenyl)-1-phenyl-3,6-dihydroimidazo[4,5-d]pyrrolo[2,3-b]pyridin-2(1H)-one] | > 1000 nM | > 1000 nM | 100 to 500 nM
6 | Cn1c(=O)n(-c2ccccc2)c2c3cc(-c4cnn(C5CCS(=O)(=O)C5)c4)[nH]c3ncc21 (stereo not drawn) [Example 6, 7-(1-(1,1-Dioxidotetrahydro-thiophen-3-yl)-1H-pyrazol-4-yl)-3-methyl-1-phenyl-3,6-dihydroimidazo[4,5-d]pyrrolo[2,3-b]pyridin-2(1H)-one] | 100 to 500 nM | 100 to 500 nM | 10 to 100 nM
7 | CN(CCCS(C)(=O)=O)Cc1ccc(-c2cc3c(ncc4c3n(-c3ccccc3)c(=O)n4C)[nH]2)cc1 [Example 7, 3-Methyl-7-(4-((methyl(3-(methylsulfonyl)propyl)amino)methyl)phenyl)-1-phenyl-3,6-dihydroimidazo [4,5-d]pyrrolo[2,3-b]pyridin-2(1H)-one] | 100 to 500 nM | 100 to 500 nM | 10 to 100 nM
8 | Cn1c(=O)n(-c2ccccc2)c2c3cc(-c4ccc(CN5CCC(S(C)(=O)=O)CC5)c(F)c4)[nH]c3ncc21 [Example 8, 7-(3-Fluoro-4-((4-(methylsulfonyl)piperidin-1-yl)methyl)phenyl)-3-methyl-1-phenyl-3,6-dihydroimidazo[4,5-d]pyrrolo[2,3-b]pyridin-2(1H)-one] | 100 to 500 nM | 10 to 100 nM | 10 to 100 nM
9 | CCN1CCN(c2ccc(-c3cc4c(ncc5c4n(-c4ccccn4)c(=O)n5C)[nH]3)cc2)CC1 [Example 9, 7-(4-(4-Ethylpiperazin-1-yl)phenyl)-3-methyl-1-(pyridin-2-yl)-3,6-dihydroimidazo[4,5-d]pyrrolo[2,3-b]pyridin-2(1H)-one] | > 1000 nM | > 1000 nM | > 1000 nM
10 | Cn1c(=O)n(C2CCCCC2)c2c3cc(-c4ccc(CN5CCC(S(C)(=O)=O)CC5)cc4)[nH]c3ncc21 [Example 10, 1-Cyclohexyl-3-methyl-7-(4-((4-(methylsulfonyl)piperidin-1-yl)methyl)phenyl)-3,6-dihydroimidazo[4,5-d]pyrrolo[2,3-b]pyridin-2(1H)-one] | 100 to 500 nM | 10 to 100 nM | 10 to 100 nM
11 | Cn1c(=O)n(C(C)(C)C)c2c3cc(-c4ccc(CN5CCC(S(C)(=O)=O)CC5)cc4)[nH]c3ncc21 [Example 11, 1-(tert-Butyl)-3-methyl-7-(4-((4-(methylsulfonyl)piperidin-1-yl)methyl)phenyl)-3,6-dihydroimidazo[4,5-d]pyrrolo[2,3-b]pyridin-2(1H)-one] | 10 to 100 nM | 10 to 100 nM | 10 to 100 nM
12 | Cn1c(=O)n(C2CCCCC2)c2c3cc(-c4cnn(CS(C)(=O)=O)c4)[nH]c3ncc21 [Example 12, 1-Cyclohexyl-3-methyl-7-(1-((methylsulfonyl)methyl)-1H-pyrazol-4-yl)-3,6-dihydroimidazo[4,5-d]pyrrolo[2,3-b]pyridin-2(1H)-one] | 100 to 500 nM | 10 to 100 nM | 10 to 100 nM
13 | CCn1c(=O)n(C2CCCC2)c2c3cc(-c4ccc(CN5CCC(S(C)(=O)=O)CC5)cc4)[nH]c3ncc21 [Example 13, 1-Cyclopentyl-3-ethyl-7-(4-((4-(methylsulfonyl)piperidin-1-yl)methyl)phenyl)-3,6-dihydroimidazo[4,5-d]pyrrolo[2,3-b] pyridin-2(1H)-one] | > 1000 nM | > 1000 nM | 100 to 500 nM
14 | Cn1cc(-c2cc3c(ncc4c3[nH]c(=O)n4C)[nH]2)cn1 [Example 14, 3-Methyl-7-(1-methyl-1H-pyrazol-4-yl)-3,6-dihydroimidazo[4,5-d]pyrrolo[2,3-b]pyridin-2(1H)-one] | > 1000 nM | > 1000 nM | 100 to 500 nM
15 | Cn1c(=O)n(C2CCCOC2)c2c3cc(-c4ccc(CN5CCC(S(C)(=O)=O)CC5)cc4)[nH]c3ncc21 (stereo not drawn) [Example 15, 3-Methyl-7-(4-((4-(methylsulfonyl)piperidin-1-yl)methyl)phenyl)-1-(tetrahydro-2H-pyran-3-yl)-3,6-dihydroimidazo[4,5-d]pyrrolo[2,3-b]pyridin-2(1H)-one] | 100 to 500 nM | 100 to 500 nM | 10 to 100 nM
16 | CCN1CCN(c2ccc(-c3cc4c(ncc5c4n(Cc4cnn(C)c4)c(=O)n5C)[nH]3)cc2)CC1 [Example 16, 7-(4-(4-Ethylpiperazin-1-yl)phenyl)-3-methyl-1-((1-methyl-1H-pyrazol-4-yl)methyl)-3,6-dihydroimidazo[4,5-d]pyrrolo[2,3-b]pyridin-2(1H)-one] | > 1000 nM | > 1000 nM | 500 to 1000 nM
